From PubChem BioAssay AID1963442 (Molecular Pharmacology Branch, DTP, NCI, 2024)

Tested on: MPNST complex spheroid with HUVEC/MSC, growth, % test/control
Experiment: Anticancer human tumor MPNST cell line growth inhibition [Asc];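 also: compounds left on spheroids for seven days before reading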
Details: for IC50: curve of first compound; for viability, T/C: stronger effect = lower value; active = viability on the fitted dose curve at most 10% of control; inactive = the rest
In short: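 Concentration series start at each agent's clinical Cmax, or at 10 microM when none is established, and drop in half-log steps; agents are applied alone or together to complex spheroids built with HUVEC and hMSC.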

[1] = second compound 0.1 µM, first compound 0.00316 µM
[2] = second compound 0.1 µM, first compound 0.01 µM
[3] = second compound 0.1 µM, first compound 0.0316 µM
[4] = second compound 0.1 µM, first compound 0.1 µM
[5] = second compound 0.1 µM, first compound 0.316 µM
[6] = second compound 0.1 µM, first compound 1 µM
[7] = second compound 0.316 µM, first compound 0.00316 µM
[8] = second compound 0.316 µM, first compound 0.01 µM
[9] = second compound 0.316 µM, first compound 0.0316 µM
[10] = second compound 0.316 µM, first compound 0.1 µM
[11] = second compound 0.316 µM, first compound 0.316 µM
[12] = second compound 0.316 µM, first compound 1 µM
[13] = second compound 1 µM, first compound 0.00316 µM
[14] = second compound 1 µM, first compound 0.01 µM
[15] = second compound 1 µM, first compound 0.0316 µM
[16] = second compound 1 µM, first compound 0.1 µM
[17] = second compound 1 µM, first compound 0.316 µM
[18] = second compound 1 µM, first compound 1 µM
[19] = second compound 3.16 µM, first compound 0.00316 µM
[20] = second compound 3.16 µM, first compound 0.01 µM
[21] = second compound 3.16 µM, first compound 0.0316 µM
[22] = second compound 3.16 µM, first compound 0.1 µM
[23] = second compound 3.16 µM, first compound 0.316 µM
[24] = second compound 3.16 µM, first compound 1 µM
[25] = second compound 10 µM, first compound 0.00316 µM
[26] = second compound 10 µM, first compound 0.01 µM
[27] = second compound 10 µM, first compound 0.0316 µM
[28] = second compound 10 µM, first compound 0.1 µM
[29] = second compound 10 µM, first compound 0.316 µM
[30] = second compound 10 µM, first compound 1 µM

CCN1CCN(Cc2ccc(Nc3ncc(F)c(-c4cc(F)c5nc(C)n(C(C)C)c5c4)n3)nc2)CC1 + Cc1c(S(C)(=O)=O)c(-c2cc(F)cc(N3CCN(c4ccc(NS(=O)(=O)c5ccc(NC(CCN6CCC(C(=O)OCCCP(=O)(O)O)CC6)CSc6ccccc6)c(S(=O)(=O)C(F)(F)F)c5)cc4)CC3)c2)c(-c2ccc(Cl)cc2)n1C(C)C
1000 nM: IC50 (second compound 3.16 µM)
> 1000 nM: IC50 (second compound 0.1 µM) | IC50 (second compound 0.316 µM) | IC50 (second compound 1 µM)
inactive: viability, T/C [1] 75.8% | viability, T/C [2] 72.3% | viability, T/C [3] 73.7% | viability, T/C [4] 78.3% | viability, T/C [5] 55.8% | viability, T/C [6] 64.5% | viability, T/C [7] 82.8% | viability, T/C [8] 54.8% | viability, T/C [9] 75.6% | viability, T/C [10] 84.2% | viability, T/C [11] 53.5% | viability, T/C [12] 58% | viability, T/C [13] 76.6% | viability, T/C [14] 78.5% | viability, T/C [15] 76.9% | viability, T/C [16] 62.3% | viability, T/C [17] 53% | viability, T/C [18] 55.1% | viability, T/C [19] 73.3% | viability, T/C [20] 77.9% | viability, T/C [21] 57% | viability, T/C [22] 47.6% | viability, T/C [23] 56.3% | viability, T/C [24] 47.3% | viability, T/C [25] 83.5% | viability, T/C [26] 91.4% | viability, T/C [27] 50.2% | viability, T/C [28] 52.8% | viability, T/C [29] 55.4% | viability, T/C [30] 47.1%
316 nM: IC50 (second compound 10 µM)

COc1c(OCCCN2CCOCC2)ccc2c3n(c(=NC(=O)c4cnc(N)nc4)nc12)CCN3 + Cc1c(S(C)(=O)=O)c(-c2cc(F)cc(N3CCN(c4ccc(NS(=O)(=O)c5ccc(NC(CCN6CCC(C(=O)OCCCP(=O)(O)O)CC6)CSc6ccccc6)c(S(=O)(=O)C(F)(F)F)c5)cc4)CC3)c2)c(-c2ccc(Cl)cc2)n1C(C)C
31.7 nM: IC50 (second compound 3.16 µM)
active: viability, T/C [30] 8.75%
62.8 nM: IC50 (second compound 1 µM)
50.3 nM: IC50 (second compound 0.316 µM)
68.1 nM: IC50 (second compound 0.1 µM)
29.3 nM: IC50 (second compound 10 µM)
inactive: viability, T/C [1] 60.5% | viability, T/C [2] 71.7% | viability, T/C [3] 62.3% | viability, T/C [4] 41.8% | viability, T/C [5] 30.4% | viability, T/C [6] 18.6% | viability, T/C [7] 72.6% | viability, T/C [8] 62.3% | viability, T/C [9] 61.7% | viability, T/C [10] 35% | viability, T/C [11] 23.8% | viability, T/C [12] 16.8% | viability, T/C [13] 75.9% | viability, T/C [14] 77.1% | viability, T/C [15] 62.4% | viability, T/C [16] 40.1% | viability, T/C [17] 25.2% | viability, T/C [18] 14.4% | viability, T/C [19] 79.3% | viability, T/C [20] 69.5% | viability, T/C [21] 49.7% | viability, T/C [22] 31.1% | viability, T/C [23] 18.9% | viability, T/C [24] 16.8% | viability, T/C [25] 90.1% | viability, T/C [26] 71.8% | viability, T/C [27] 48.5% | viability, T/C [28] 27.5% | viability, T/C [29] 18.3%

NC(=O)C(=Cn1cnc(-c2cc(C(F)(F)F)cc(C(F)(F)F)c2)n1)c1cncnc1 + Cc1c(S(C)(=O)=O)c(-c2cc(F)cc(N3CCN(c4ccc(NS(=O)(=O)c5ccc(NC(CCN6CCC(C(=O)OCCCP(=O)(O)O)CC6)CSc6ccccc6)c(S(=O)(=O)C(F)(F)F)c5)cc4)CC3)c2)c(-c2ccc(Cl)cc2)n1C(C)C
inactive: viability, T/C (second compound 0.1 µM, first compound 0.000949 µM) 56.9% | viability, T/C (second compound 0.1 µM, first compound 0.003 µM) 65.2% | viability, T/C (second compound 0.1 µM, first compound 0.00949 µM) 59% | viability, T/C (second compound 0.1 µM, first compound 0.03 µM) 80.2% | viability, T/C (second compound 0.1 µM, first compound 0.0949 µM) 66.9% | viability, T/C (second compound 0.1 µM, first compound 0.3 µM) 44.9% | viability, T/C (second compound 0.316 µM, first compound 0.000949 µM) 68.9% | viability, T/C (second compound 0.316 µM, first compound 0.003 µM) 80% | viability, T/C (second compound 0.316 µM, first compound 0.00949 µM) 74.3% | viability, T/C (second compound 0.316 µM, first compound 0.03 µM) 64.3% | viability, T/C (second compound 0.316 µM, first compound 0.0949 µM) 61.5% | viability, T/C (second compound 0.316 µM, first compound 0.3 µM) 40.6% | viability, T/C (second compound 1 µM, first compound 0.000949 µM) 78.6% | viability, T/C (second compound 1 µM, first compound 0.003 µM) 75.8% | viability, T/C (second compound 1 µM, first compound 0.00949 µM) 67.9% | viability, T/C (second compound 1 µM, first compound 0.03 µM) 54.4% | viability, T/C (second compound 1 µM, first compound 0.0949 µM) 50.6% | viability, T/C (second compound 1 µM, first compound 0.3 µM) 41.5% | viability, T/C (second compound 3.16 µM, first compound 0.000949 µM) 65.3% | viability, T/C (second compound 3.16 µM, first compound 0.003 µM) 78.5% | viability, T/C (second compound 3.16 µM, first compound 0.00949 µM) 70.1% | viability, T/C (second compound 3.16 µM, first compound 0.03 µM) 51.5% | viability, T/C (second compound 3.16 µM, first compound 0.0949 µM) 44.6% | viability, T/C (second compound 3.16 µM, first compound 0.3 µM) 39.3% | viability, T/C (second compound 10 µM, first compound 0.000949 µM) 73.3% | viability, T/C (second compound 10 µM, first compound 0.003 µM) 72.4% | viability, T/C (second compound 10 µM, first compound 0.00949 µM) 65.6% | viability, T/C (second compound 10 µM, first compound 0.03 µM) 58.4% | viability, T/C (second compound 10 µM, first compound 0.0949 µM) 48% | viability, T/C (second compound 10 µM, first compound 0.3 µM) 34.6%
72 nM: IC50 (second compound 1 µM)
75.6 nM: IC50 (second compound 10 µM)
172 nM: IC50 (second compound 0.316 µM)
> 300 nM: IC50 (second compound 0.1 µM)
37.4 nM: IC50 (second compound 3.16 µM)

NC1CCC(NC2CC2c2ccccc2)CC1 (stereo not given) + Cc1c(S(C)(=O)=O)c(-c2cc(F)cc(N3CCN(c4ccc(NS(=O)(=O)c5ccc(NC(CCN6CCC(C(=O)OCCCP(=O)(O)O)CC6)CSc6ccccc6)c(S(=O)(=O)C(F)(F)F)c5)cc4)CC3)c2)c(-c2ccc(Cl)cc2)n1C(C)C
inactive: viability, T/C (second compound 0.1 µM, first compound 0.000316 µM) 67.4% | viability, T/C (second compound 0.1 µM, first compound 0.001 µM) 71.3% | viability, T/C [1] 63.5% | viability, T/C [2] 75% | viability, T/C [3] 72.4% | viability, T/C [4] 64.2% | viability, T/C (second compound 0.316 µM, first compound 0.000316 µM) 81.8% | viability, T/C (second compound 0.316 µM, first compound 0.001 µM) 67.6% | viability, T/C [7] 87.1% | viability, T/C [8] 64.5% | viability, T/C [9] 66.4% | viability, T/C [10] 61.8% | viability, T/C (second compound 1 µM, first compound 0.000316 µM) 73.8% | viability, T/C (second compound 1 µM, first compound 0.001 µM) 63.2% | viability, T/C [13] 70.4% | viability, T/C [14] 66.5% | viability, T/C [15] 69.4% | viability, T/C [16] 59.8% | viability, T/C (second compound 3.16 µM, first compound 0.000316 µM) 60.8% | viability, T/C (second compound 3.16 µM, first compound 0.001 µM) 81.5% | viability, T/C [19] 64.9% | viability, T/C [20] 65.8% | viability, T/C [21] 65.4% | viability, T/C [22] 54.1% | viability, T/C (second compound 10 µM, first compound 0.000316 µM) 79% | viability, T/C (second compound 10 µM, first compound 0.001 µM) 83.2% | viability, T/C [25] 69.2% | viability, T/C [26] 69.7% | viability, T/C [27] 65.9% | viability, T/C [28] 62%
> 100 nM: IC50 (second compound 0.1 µM) | IC50 (second compound 0.316 µM) | IC50 (second compound 1 µM) | IC50 (second compound 3.16 µM) | IC50 (second compound 10 µM)
